± gives the standard deviation of the averaged measurements.
How the values were obtained:
OSI-906 = compound: C[C@]1(O)C[C@@H](c2nc(-c3ccc4ccc(-c5ccccc5)nc4c3)c3c(N)nccn32)C1 [OSI-906]; assay: surviving fraction relative to DMSO-only wells; higher = less growth inhibition; conditions: exposure time: 5 days
Summary of the method: (§1)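 Tumour cell lines were grown to log phase and seeded at 250–500 cells per well in 384-well plates. They were exposed continuously to inhibitors at 0.5, 1, 5, 10, 50, 100, 500 and 1000 nM for five days, beginning 24 hours after seeding. Surviving fraction is CellTiter-Glo luminescence normalised to the median of DMSO-only wells.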

YM155 = compound: COCC[n+]1c2c(n(Cc3cnccn3)c1C)C(=O)c1ccccc1C2=O [YM155]; assay: as above; conditions: exposure time: 5 days
Summary of the method: as §1

Test System	surviving fraction (OSI-906; 0.5 nM)	surviving fraction (OSI-906; 1 nM)	surviving fraction (OSI-906; 5 nM)	surviving fraction (OSI-906; 10 nM)	surviving fraction (OSI-906; 50 nM)	surviving fraction (OSI-906; 100 nM)	surviving fraction (OSI-906; 500 nM)	surviving fraction (OSI-906; 1000 nM)	surviving fraction (YM155; 0.5 nM)	surviving fraction (YM155; 1 nM)	surviving fraction (YM155; 5 nM)	surviving fraction (YM155; 10 nM)	surviving fraction (YM155; 50 nM)	surviving fraction (YM155; 100 nM)	surviving fraction (YM155; 500 nM)	surviving fraction (YM155; 1000 nM)
SG31 HEADNECK	0.867 ± 0.15	0.994 ± 0.057	0.84 ± 0.045	0.985 ± 0.056	1 ± 0.22	0.833 ± 0.1	0.615 ± 0.042	0.493 ± 0.042	1.01 ± 0.095	1.07 ± 0.074	0.883 ± 0.062	0.893 ± 0.11	0.391 ± 0.13	0.291 ± 0.15	0.0993 ± 0.037	0.104 ± 0.064
HS57T BREAST	0.862 ± 0.014	0.89 ± 0.068	0.869 ± 0.047	0.902 ± 0.052	0.934 ± 0.032	0.881 ± 0.023	0.915 ± 0.047	0.826 ± 0.082	0.919 ± 0.02	0.923 ± 0.056	0.729 ± 0.058	0.799 ± 0.1	0.287 ± 0.029	0.182 ± 0.013	0.0527 ± 0.0015	0.0473 ± 0.0047
G292 BONE	0.923 ± 0.032	0.929 ± 0.035	0.929 ± 0.04	0.919 ± 0.034	0.728 ± 0.059	0.624 ± 0.021	0.579 ± 0.04	0.553 ± 0.045	0.967 ± 0.04	1 ± 0.047	0.654 ± 0.024	0.528 ± 0.037	0.251 ± 0.0065	0.194 ± 0.007	0.0688 ± 0.0042	0.0473 ± 0.0024
CAL51 BREAST	0.958 ± 0.023	0.924 ± 0.018	0.9553 ± 0.0093	0.94 ± 0.087	1.01 ± 0.02	0.992 ± 0.031	0.948 ± 0.029	0.922 ± 0.074	0.905 ± 0.039	0.873 ± 0.042	0.231 ± 0.029	0.105 ± 0.015	0.0278 ± 0.001	0.0232 ± 0.00058	0.019 ± 0.00087	0.024 ± 0.0005
93VU HEADNECK	0.821 ± 0.057	0.793 ± 0.053	0.836 ± 0.041	0.809 ± 0.13	0.974 ± 0.069	0.848 ± 0.014	0.711 ± 0.021	0.724 ± 0.23	0.961 ± 0.099	0.982 ± 0.081	1.06 ± 0.061	1.045 ± 0.0081	0.839 ± 0.034	0.815 ± 0.06	0.193 ± 0.011	0.123 ± 0.027
CAL120 BREAST	0.895 ± 0.052	0.907 ± 0.054	0.937 ± 0.041	0.942 ± 0.026	0.901 ± 0.04	0.9 ± 0.066	0.895 ± 0.046	0.893 ± 0.058	0.934 ± 0.049	0.905 ± 0.073	0.148 ± 0.021	0.0712 ± 0.0018	0.0243 ± 0.001	0.0215 ± 0.00087	0.016 ± 0.00087	0.023 ± 0.0017
LM7 BONE	0.743 ± 0.037	0.717 ± 0.062	0.801 ± 0.074	0.747 ± 0.041	0.867 ± 0.011	0.771 ± 0.048	0.48 ± 0.023	0.435 ± 0.025	0.943 ± 0.029	0.889 ± 0.053	0.433 ± 0.018	0.201 ± 0.019	0.039 ± 0.0056	0.0237 ± 0.00058	0.0197 ± 0.00058	0.025 ± 0.0017
SAOS2 BONE	0.82 ± 0.027	0.858 ± 0.013	0.804 ± 0.085	0.838 ± 0.045	1.06 ± 0.018	0.877 ± 0.066	0.594 ± 0.016	0.522 ± 0.057	1.16 ± 0.021	1.1 ± 0.097	0.39 ± 0.035	0.237 ± 0.0095	0.053 ± 0.0069	0.0327 ± 0.006	0.0223 ± 0.00058	0.0293 ± 0.00058
MDAMB231 BREAST	0.917 ± 0.034	0.9167 ± 0.0045	0.937 ± 0.021	0.918 ± 0.03	0.957 ± 0.031	0.947 ± 0.013	0.922 ± 0.014	0.908 ± 0.032	0.91 ± 0.0095	0.903 ± 0.024	0.112 ± 0.002	0.0683 ± 0.0035	0.0386 ± 0.0022	0.0352 ± 0.002	0.0302 ± 0.00043	0.0372 ± 0.0043
ZR751 BREAST	0.893 ± 0.058	0.857 ± 0.08	0.879 ± 0.1	0.847 ± 0.069	0.819 ± 0.091	0.795 ± 0.076	0.634 ± 0.08	0.462 ± 0.022	0.835 ± 0.1	0.95 ± 0.085	0.559 ± 0.083	0.411 ± 0.07	0.128 ± 0.017	0.0917 ± 0.0067	0.0307 ± 0.0055	0.0287 ± 0.0031
